The conditions of data set [1]: cited from earlier work.
For data set [2] the following is noted: in vivo; cited from earlier work.
The nature of data set [3]: Solubility of bisthiol compound. The format is physicochemical.
A short description of data set [4]: Biodistribution in Swiss Webster albino male mice, coinjected with 131I-OIH (Tables IV, V). The format is in vivo, mouse. The method, then:
The diastereomers (XVIA) and (XVIB) were synthesized and then isolated by high pressure liquid chromatography as described previously, and their biodistributions obtained in groups in six Swiss Webster albino male mice. […] The mice were then placed in metabolic cages to collect urine. At 10 and 120 minutes after injection, the penis was ligated, the mice killed with chloroform vapor, and the organs disected.

The nature of data set [5]: Gamma camera: % total dose in bladder, 99mTc complexes coinjected with 131I-OIH into normal dogs (Tables I, III). Particulars: for % Total Dose In Bladder (gamma camera data): single animals. The format is in vivo, dog. Also noted: Comparison of % total dose in bladder versus 131I-OIH, column headed by drawing 19 (± s.d.): unit not given here. The procedure:
The two fractions collected from the products of synthesis in each case were denoted (XVIA), (XVIB), (XXXIA), and (XXXIB), respectively.
Images were recorded at 1, 5, 10, 15, 20, 25, 30 and 35 minutes after administration. The initial image at one minute was used to collect 750,000 counts. All subsequent images were exposed for the same length of time as this first image, and the number of counts noted. […] In this way, the counts collected in the camera images cound be related to absolute activity levels (mCi or μCi). The animals were then observed until the urine samples were free of ^99m Tc.
The values represent the calculated % total dose in the camera region of interest set over the bladder.

A short description of data set [6]: Average % total dose in urine samples of dogs (Table II). Particulars: mean. The format is in vivo, dog. An excerpt:
The diastereomeric ^99m Tc complexes formed by reduction of pertechnetate in the presence of (2-benzoylthioacetyl)- glycyl-(S-benzoyl)-cysteine methyl ester (compound XVI) and N-2-(benzoylthio)ethyl)-N'-1-carbomethoxy-(2-benzoylthio)ethyl]oxamide (compound XXXI) were synthesized and separated by high pressure liquid chromatography. The two fractions collected from the products of synthesis in each case were denoted (XVIA), (XVIB), (XXXIA), and (XXXIB), respectively.
Samples of each fraction were mixed with appropriate amounts of ^131 I-OIH and coinjected into normal dogs placed under a gamma camera. Images were recorded at 1, 5, 10, 15, 20, 25, 30 and 35 minutes after administration. The initial image at one minute was used to collect 750,000 counts. All subsequent images were exposed for the same length of time as this first image, and the number of counts noted. Immediately after each count, a urine sample was drawn from the bladder via a indwelling catheter, and the ^99m Tc ANd ^131 I activity determined using an ionization chamber. In this way, the counts collected in the camera images cound be related to absolute activity levels (mCi or μCi). The animals were then observed until the urine samples were free of ^99m Tc.
In Table II can be seen the average % total dose valus observed in the urine samples collected at each time point. Also quoted in parentheses are the standard deviation and standard error of the mean.

Setting [7] is: Table IV, 10 min, XVI A and 131I-OIH coinjected.
Setting [8] is: Table IV, 120 min, XVI A and 131I-OIH coinjected.
[9] abbreviates: Table V, 10 min, XVI B and 131I-OIH coinjected.
Where [10] appears, read: Table V, 120 min, XVI B and 131I-OIH coinjected.

Where “and” joins values, the source holds several entries; their conditions need not be identical. Identical values can stand only once.

Consider `[O]=[Tc](=[O])(=[O])[O-]` [pertechnetate], for which, in data set [1] (in vivo), the “absolute concentration in the renal parenchyma” value is reported as “low”, the “filtered activity reabsorbed by the renal tubules” value is listed as “about 86%” and the urinary excretion entry was “relatively slow”.

With `O=C([O-])CN(CCN(CC(=O)[O-])CC(=O)[O-])CCN(CC(=O)[O-])CC(=O)[O-].[99Tc+4]` [Compound 99mTc-DTPA], in data set [1] (in vivo), the route of excretion entry is “excreted exclusively by glomerular filtration”.

Take `O=C(O)Cn1cc(I)c(=O)c(I)c1` [iodo-pyracet]: the “removal from circulation by the liver” value in data set [1] (in vivo) is listed as “partial removal from the circulation by the liver”.

Turning to `Nc1ccc(C(=O)NCC(=O)O)cc1` [PAH, Paraaminohippuric acid], in data set [1] (kidneys), the “elimination by glomerular filtration” value was 20% and the “elimination by tubular secretion” value is on record as 80%. Also, in data set [1] (normal adult), the “renal plasma flow as measured by PAH” value is listed as “about 575 ml/minute”. The “extraction by the normal kidney” value in data set [1] (normal kidney) is 90%.

On to `O=C1C[S][Tc-]23(=[O])[S]CC(=O)[N]2CC[N]13` [[TcO(ema)]-], for which the “excretion route and metabolic state” value in data set [2] was “excreted into both the urine and bile in a chemically unchanged form”.

Consider `O=C(NCCS)C(=O)NCCS` [XXXII, N, N'-bis(2-mercaptoethyl)oxamide], for which the solubility result in data set [3] was “soluble only in DMSO, trifluoroacetic acid and aqueous alkali”.

With `O=C(O)CNC(=O)c1ccccc1[131I]` [Compound 131I-OIH, ^131 I-ortho-iodohippurate, reference compound], in data set [4] (setting [7]), the “Blood, % total dose per organ ± s.d.” value amounted to 2.80 ± 0.24 % total dose per organ; the “Intestine, % total dose per organ ± s.d.” value amounted to 1.15 ± 0.23 % total dose per organ; the “Kidneys, % total dose per organ ± s.d.” value is 2.18 ± 0.29 % total dose per organ; the “Liver, % total dose per organ ± s.d.” value amounted to 1.36 ± 0.24 % total dose per organ. In data set [4] (setting [7]), the “Stomach, % total dose per organ ± s.d.” value amounted to 0.36 ± 0.10 % total dose per organ and the “Urine, % total dose ± s.d.” value is 64.80 ± 7.31 % total dose per organ. In data set [4] (setting [8]), the “Blood, % total dose per organ ± s.d.” value came to 0.22 ± 0.04 % total dose per organ; the “Intestine, % total dose per organ ± s.d.” value came to 0.45 ± 0.19 % total dose per organ; the “Kidneys, % total dose per organ ± s.d.” value is recorded as 0.01 ± 0.06 % total dose per organ; the “Liver, % total dose per organ ± s.d.” value turned out to be 0.14 ± 0.03 % total dose per organ. Further, in data set [4] (setting [8]), the “Stomach, % total dose per organ ± s.d.” value is 0.60 ± 0.19 % total dose per organ and the “Urine, % total dose ± s.d.” value was 89.86 ± 3.03 % total dose per organ. In addition, in data set [4] (setting [9]), the “Blood, % total dose per organ ± s.d.” value is 2.11 ± 0.62 % total dose per organ; the “Intestine, % total dose per organ ± s.d.” value came out at 0.91 ± 0.27 % total dose per organ; the “Kidneys, % total dose per organ ± s.d.” value came to 3.09 ± 3.36 % total dose per organ; the “Liver, % total dose per organ ± s.d.” value was 1.20 ± 0.41 % total dose per organ. Also, in data set [4] (setting [9]), the “Stomach, % total dose per organ ± s.d.” value amounted to 0.42 ± 0.63 % total dose per organ and the “Urine, % total dose ± s.d.” value is 78.86 ± 5.1 % total dose per organ. In data set [4] (setting [10]), the “Blood, % total dose per organ ± s.d.” value is 0.19 ± 0.08 % total dose per organ; the “Intestine, % total dose per organ ± s.d.” value was determined as 0.24 ± 0.04 % total dose per organ; the “Kidneys, % total dose per organ ± s.d.” value was determined as 0.05 ± 0.04 % total dose per organ; the “Liver, % total dose per organ ± s.d.” value was 0.10 ± 0.04 % total dose per organ. Further, in data set [4] (setting [10]), the “Stomach, % total dose per organ ± s.d.” value came out at 0.71 ± 0.27 % total dose per organ and the “Urine, % total dose ± s.d.” value stood at 93.25 ± 0.89 % total dose per organ. The “time to maximum uptake in normal kidneys” value in data set [1] (bolus injection) is given as “within the first five minutes”. Moreover, the “clearance relative to PAH” value in data set [1] (in vivo) is on record as “lower clearance than PAH”. Moreover, in data set [1] (normally hydrated patient, at thirty minutes, 30 min), the “injected dose found in the urine” value is reported as “approximately 70%”. Moreover, the “clearance from the renal parenchyma and collecting system” value in data set [1] (normally hydrated patient, bolus injection) is listed as “within thirty minutes”. Also, the “% total dose in bladder at 35 minutes, Average 131I (± s.d)” value in data set [5] (Table III, 35 min, average of dogs, coinjected with the 99mTc complex of the line) is 73.60 % total dose and 72.02 % total dose and 76.69 % total dose and 80.87 % total dose. In addition, the “% total dose in bladder at 35 minutes, 131I” value in data set [5] (Table III, 35 min, single dogs, coinjected with the 99mTc complex of the line) was 73.14 % total dose and 77.31 % total dose and 70.39 % total dose and 61.75 % total dose and 77.21 % total dose and 77.10 % total dose and 74.35 % total dose and 82.53 % total dose and 73.20 % total dose and 87.52 % total dose and 75.71 % total dose and 79.39 % total dose.

As to `O=C(O)C1C[S][Tc-]23(=[O])[S]CC(=O)[N]2CC(=O)[N]13` (single isomer, unassigned) [XVIB], the “Average % Total Dose in Urine Samples” value is recorded as 13.98 % total dose in data set [6] (5 min post injection, 5 min); 32.94 % total dose in data set [6] (10 min post injection, 10 min); 44.29 % total dose in data set [6] (15 min post injection, 15 min); 51.40 % total dose in data set [6] (20 min post injection, 20 min); 56.34 % total dose in data set [6] (25 min post injection, 25 min); 62.55 % total dose in data set [6] (30 min post injection, 30 min). In addition, the “Average % Total Dose in Urine Samples” value in data set [6] (35 min post injection, 35 min) amounted to 66.44 % total dose. Moreover, the figures for the “Blood, % total dose per organ ± s.d.” value in data set [4] (setting [9]) and in data set [4] (setting [10]) were 1.47 ± 0.72 % total dose per organ and 0.13 ± 0.10 % total dose per organ, respectively. The “Intestine, % total dose per organ ± s.d.” value amounted to 0.48 ± 0.18 % total dose per organ in data set [4] (setting [9]) and 0.40 ± 0.17 % total dose per organ in data set [4] (setting [10]). In addition, the figures for the “Kidneys, % total dose per organ ± s.d.” value in data set [4] (setting [9]) and in data set [4] (setting [10]) were 4.41 ± 3.6 % total dose per organ and 0.08 ± 0.07 % total dose per organ, respectively. Besides, the “Liver, % total dose per organ ± s.d.” value amounted to 0.79 ± 0.49 % total dose per organ in data set [4] (setting [9]) and 0.11 ± 0.06 % total dose per organ in data set [4] (setting [10]). Moreover, the “Stomach, % total dose per organ ± s.d.” value amounted to 0.06 ± 0.03 % total dose per organ in data set [4] (setting [9]) and 0.07 ± 0.12 % total dose per organ in data set [4] (setting [10]). Also, the “Urine, % total dose ± s.d.” value is on record as 79.32 ± 5.1 % total dose per organ in data set [4] (setting [9]) and 91.47 ± 1.1 % total dose per organ in data set [4] (setting [10]). Besides, in data set [4] (mice, versus 131I-OIH), the “clearance into the urine” value was “cleared rapidly into the urine at comparable rates to each other and to the radiopharmaceutical ^131 I-OIH”. Also, the “% Total Dose In Bladder (gamma camera data)” value in data set [5] (5 min post injection, normal dogs, 5 min) is 12.31 % total dose and 10.03 % total dose and 19.60 % total dose; in data set [5] (10 min post injection, normal dogs, 10 min), 28.53 % total dose and 33.78 % total dose and 36.51 % total dose; in data set [5] (15 min post injection, normal dogs, 15 min) it was 39.47 % total dose and 45.88 % total dose and 47.52 % total dose; in data set [5] (20 min post injection, normal dogs, 20 min), 45.09 % total dose and 53.55 % total dose and 55.57 % total dose; in data set [5] (25 min post injection, normal dogs, 25 min), 48.09 % total dose and 60.94 % total dose and 59.98 % total dose; in data set [5] (30 min post injection, normal dogs, 30 min) it was 53.05 % total dose and 64.60 % total dose and 70.00 % total dose. In addition, in data set [5] (35 min post injection, normal dogs, 35 min), the “% Total Dose In Bladder (gamma camera data)” value is 54.63 % total dose and 73.12 % total dose and 71.57 % total dose. Also, the “% total dose in bladder at 35 minutes, Average 99mTc (± s.d)” value in data set [5] (Table III, 35 min, average of dogs) is 66.44 % total dose. Besides, the “Comparison of % total dose in bladder versus 131I-OIH, column headed by drawing 19 (± s.d.)” value in data set [5] (Table III, 35 min, dogs) is given as 92.25. Besides, the “pharmacokinetic behavior of the diastereomers” value in data set [5] (normal dogs) is given as “identical”. In data set [5] (normal dogs, versus 131I-OIH), the “rate of excretion in the urine” value was “comparable rates of excretion to each other and to OIH”.

The record behind these values is patent US4673562A, “Bisamide bisthiol compounds useful for making technetium radiodiagnostic renal agents” (The Children's Medical Center Corporation, priority 1983, dated 1987).
